Data as given in patent US20070037752A1, “Novel alanyl-amino peptidase inhibitors for functionally influencing different cells and treating immunological, inflammatory, neuronal, and other diseases” (priority 2003, published 2007).
Read-outs that look alike come from different tables or passages of the source. One block for each compound: values may come before it. Residues, ends and D or L forms follow the SMILES beside them. *: point of attachment. Fmoc = O=C(OCC1c2ccccc2-c2ccccc21)*

Target: alanyl aminopeptidases (APN) (Homo sapiens, UniProt P15144)
Sequence (P15144 whole entry, species assumed): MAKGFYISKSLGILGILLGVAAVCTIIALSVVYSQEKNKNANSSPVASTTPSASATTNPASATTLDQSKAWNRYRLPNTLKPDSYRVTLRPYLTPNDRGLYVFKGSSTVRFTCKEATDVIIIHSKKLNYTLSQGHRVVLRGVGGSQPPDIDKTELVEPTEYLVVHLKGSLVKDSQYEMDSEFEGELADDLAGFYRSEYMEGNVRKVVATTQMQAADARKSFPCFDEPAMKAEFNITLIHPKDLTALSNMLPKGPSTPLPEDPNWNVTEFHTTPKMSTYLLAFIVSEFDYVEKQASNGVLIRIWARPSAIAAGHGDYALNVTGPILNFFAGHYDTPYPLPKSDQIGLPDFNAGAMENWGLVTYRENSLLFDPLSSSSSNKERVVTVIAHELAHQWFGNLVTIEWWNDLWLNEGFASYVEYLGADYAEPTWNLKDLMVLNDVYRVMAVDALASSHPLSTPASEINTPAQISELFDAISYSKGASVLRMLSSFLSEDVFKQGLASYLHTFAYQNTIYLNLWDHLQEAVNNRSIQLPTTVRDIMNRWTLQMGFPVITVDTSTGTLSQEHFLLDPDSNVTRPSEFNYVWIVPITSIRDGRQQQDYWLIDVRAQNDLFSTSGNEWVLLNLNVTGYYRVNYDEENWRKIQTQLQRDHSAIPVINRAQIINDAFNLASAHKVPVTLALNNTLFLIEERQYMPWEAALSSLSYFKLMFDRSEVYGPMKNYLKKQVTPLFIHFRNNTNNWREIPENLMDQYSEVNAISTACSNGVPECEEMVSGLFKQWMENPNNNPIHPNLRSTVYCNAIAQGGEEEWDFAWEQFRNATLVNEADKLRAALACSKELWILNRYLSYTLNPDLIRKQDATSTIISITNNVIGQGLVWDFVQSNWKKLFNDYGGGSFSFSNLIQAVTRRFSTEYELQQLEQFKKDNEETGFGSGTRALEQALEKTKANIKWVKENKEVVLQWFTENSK
Assay: Inhibition of alanyl aminopeptidase enzymatic activity, fluorogenic substrate (Ala)2-rhodamine 110
Type: biochemical
Method: The inhibition characteristics measured are referred to as IC-50 values or ID50 values (the latter marked with “*”) for said enzyme. The enzymatic activity was determined by means of the fluorogenic substrate/product (Ala)2-rhodamine 110.

[1] = Table 9, unstarred values, read-out: IC50APN
[2] = Table 3, unstarred values, read-out: IC50APN
[3] = Table 4, unstarred values, read-out: IC50APN
[4] = Table 8, unstarred values, read-out: IC50APN
[5] = Table 3, starred values = ID50, read-out: ID50 APN (values marked with *)

SMILES: Cc1ccc(/C=C(\NC(=O)c2ccccc2)C(=O)NC2CC2)o1 [A3.073]
IC50 [2]: 15.6 µM

SMILES: CC1=C(C#N)C(=O)N=C(O)/C1=C\c1ccc(-c2ccc(Cl)cc2Cl)o1 [A3.187]
IC50 [2]: 30.3 µM

SMILES: COC(=O)C(NC(=O)c1ccccc1)(Nc1sc2c(c1C#N)CCC(C(C)(C)C)C2)C(F)(F)F (stereo not drawn) [A3.239]
IC50 [2]: 43.6 µM

SMILES: O=C(CNC(=O)C(c1ccccc1)c1ccccc1)N/N=C/c1ccco1 [A3.071]
IC50 [2]: 15.6 µM

SMILES: CC(C)CC(NC(=O)C(CCC(N)=O)NC(=O)CNC(=O)C(NC(=O)OCC1c2ccccc2-c2ccccc21)C(C)C)C(=O)O (stereo not drawn) [A3.132] (Fmoc-VGQL-OH; configuration not given here)
IC50 [2]: 22.5 µM

SMILES: CCCOc1ccc(/C=C(\NC(=O)c2ccccc2)C(=O)N/N=C/c2ccco2)cc1 [A3.165]
IC50 [2]: 27.3 µM

SMILES: O=C(ON1C(=O)CCC1=O)C1CCC(=O)N1C(=O)OCc1ccccc1 (stereo not drawn) [A1.007]
IC50 (Table 1, unstarred values, read-out: IC50APN): 8.4 µM

SMILES: COc1ccc(OC)c(-c2cc(C(=O)N/N=C/c3ccco3)[nH]n2)c1 [A3.237]
IC50 [2]: 43.2 µM

SMILES: O=C(N/N=C/c1ccco1)c1ccccc1[N+](=O)[O-] [A3.315]
IC50 [2]: 92.2 µM

SMILES: CCCCCC(=O)N/N=C/c1ccco1 [A3.164]
IC50 [2]: 26.7 µM

SMILES: COc1ccc(CCCC(=O)N/N=C/c2ccco2)cc1 [A4.071]
IC50 [3]: 23.4 µM

SMILES: COc1cc(Br)ccc1OCC(=O)N/N=C/C=C/c1ccco1 [A4.017]
IC50 [3]: 11 µM

SMILES: CCc1ccc(-c2cc(C(=O)N/N=C/c3c(C)nn(-c4ccccc4)c3C)[nH]n2)cc1 [A3.061]
IC50 [2]: 13.6 µM

SMILES: O=c1cc(CSc2nnc(-c3ccco3)c(-c3ccco3)n2)c2ccccc2[nH]1 [A3.289]
IC50 [5]: 65.1 µM

SMILES: Cc1ccc(/C=N/NC(=O)c2cccc(CC(=O)c3ccccc3C)c2)o1 [A4.047]
IC50 [3]: 18.9 µM

SMILES: C/C(=C\c1ccc(C(C)C)cc1)C1NCC(c2ccc([N+](=O)[O-])cc2)O1 (stereo not drawn) [A3.345]
IC50 [5]: 293 µM

SMILES: NC(=S)N/N=C/c1ccco1 [A3.261]
IC50 [2]: 50 µM

SMILES: O=C(N/N=C\c1ccco1)c1ccc(Br)cc1 [A4.074]
IC50 [3]: 24.5 µM

SMILES: O=C(N/C(=C\c1ccco1)C(=O)N1CCC(O)CC1)c1ccccc1 [A3.115]
IC50 [2]: 21.1 µM

SMILES: O=C(N/N=C/c1ccco1)c1ccc(O)cc1 [A4.042]
IC50 [3]: 16.8 µM

SMILES: COC(=O)C1=C(N)N2C(=O)CSC2=C(C(=O)OC)C1 [A14.001]
IC50APN (Table 14): “positively very highly active”, means beyond measurement- scale”

SMILES: Cc1ccc(OCC(=O)N/N=C/c2ccco2)cc1C [A3.218]
IC50 [2]: 36.3 µM

The remaining lines, values ahead:

IC50 [1]: 25.5 µM
SMILES: O=C(N/C(=C\c1ccco1)C(=O)N1CCOCC1)c1ccccc1Cl [A9.066]

IC50 (Table 6, read-out: IC50APN): 19.2 µM
SMILES: Cc1ccccc1S(=O)(=O)Nc1cccc(C(=O)N/N=C/c2ccco2)c1 [A6.009]

IC50 (Table 6, read-out: IC50APN): 24.8 µM
SMILES: Cc1ccc(/C=C/C(=O)Nc2ccc(S(=O)(=O)N3CCCC3)cc2)o1 [A6.013]

IC50 (Table 13, read-out: IC50APN): 29.3 µM
SMILES: C=CCN1C(=O)C(C#N)=C(C)/C(=C\c2ccc(-c3cc(C)c(C)cc3[N+](=O)[O-])o2)C1=O [A13.015]

IC50 [3]: 68.9 µM
SMILES: O=C(N/N=C/c1ccco1)c1ccc(F)cc1 [A4.159]

IC50 [3]: 25.1 µM
SMILES: COc1cc(/C=N/NC(=O)/C(=C/c2cccs2)NC(=O)c2ccccc2)cc([N+](=O)[O-])c1O [A4.076]

IC50 [4]: 31.4 µM
SMILES: Cc1cccc(C)c1Nc1c(-c2ccccc2NC(=O)Nc2ccc(OC(F)(F)F)cc2)nc2c(C(=O)NCC(C)C)cccn12 [A8.027]

IC50 [3]: 82.9 µM
SMILES: O=C(CCn1nnc2ccccc21)N/N=C/c1ccco1 [A4.169]

IC50 [1]: 59.8 µM
SMILES: CC1(C)N=C(N)N=C(N)N1c1c(Cl)cccc1Cl [A9.105]

IC50 [1]: 7.3 µM
SMILES: CCOC(=O)N1CCc2c(sc(NC(=O)c3ccc(F)cc3)c2C(=O)Nc2ccc(Br)cc2)C1 [A9.013]

IC50 [3]: 36.6 µM
SMILES: Cc1c(Cl)cccc1NC(=O)CCC(=O)N/N=C/c1ccco1 [A4.119]

IC50 [3]: 42.2 µM
SMILES: Cc1cc(Br)c(OCC(=O)N/N=C/c2c(Br)cc(Br)c(O)c2Br)c(Br)c1 [A4.126]

IC50 (Table 12, read-out: IC50APN): 17.9 µM
SMILES: Cc1ccc(NC(=O)/C(=C\c2ccco2)NC(=O)c2ccccc2Cl)cc1 [A12.033]

IC50 (Table 13, read-out: IC50APN): 18.1 µM
SMILES: C=CCOC(=O)c1cc(-c2ccc(/C=C3/C(=O)N(CCCO)C(=O)C(C#N)=C3C)o2)ccc1Cl [A13.008]

IC50 [3]: 46.6 µM
SMILES: Nc1nonc1-n1nnc(C(=O)N/N=C/c2ccco2)c1-c1ccccc1 [A4.135]

IC50 [3]: 142 µM
SMILES: COc1cccc(/C=N/NC(=O)c2ccn(C)n2)c1O [A4.177]

IC50 [1]: 8.9 µM
SMILES: c1coc(-c2nc3cc4ccccc4cc3nc2-c2ccco2)c1 [A9.016]

IC50 [1]: 18.2 µM
SMILES: CC(=O)c1cccc(-c2ccc(/C=C3/C(=O)N(CCCO)C(=O)C(C#N)=C3C)o2)c1 [A9.042]

IC50 [4]: 14.9 µM
SMILES: O=C1C(Cc2ccc3[nH]ccc3c2)NC(=S)N1c1ccccc1 (stereo not drawn) [A8.016]

IC50 (Table 4, starred values = ID50, read-out: ID50 APN (values marked with *)): 422 µM
SMILES: C/C(=N\NC(=O)COc1ccc(C)cc1[N+](=O)[O-])c1ccco1 [A4.187]

IC50 [1]: 5.9 µM
SMILES: COC(=O)C1=C(N)N2C(=O)CSC2=C(C(=O)OC(C)C)C1 [A9.012]

IC50 [1]: 11.8 µM
SMILES: Cc1ccc(C(=O)N/C(=C\c2ccco2)C(=O)N2CC3CC(C2)c2cccc(=O)n2C3)cc1C (stereo not drawn) [A9.026]

IC50 [3]: 44.7 µM
SMILES: COc1ccccc1C(=O)N/N=C/c1ccco1 [A4.131]
